According to US12194084B2 (priority 2019, dated 2025):

Experiments:
[1] = test system: lymphocytes from MLN of Mtb-infected mice; assay: Recall response to Mtb lipids in Mtb-infected hCD1Tg mice (IFN-γ ELISPOT); type: cell-based
[2] = test system: DN1 T cells; type: cell-based, mouse; details: screen of 6 common adjuvants, CD69 on DN1 T cells
Experimental: 24 h later, the percentage of DN1 T cells expressing CD69 was determined by FACS. Data are representative of two experiments.

Substance	T cell responses to Mtb lipid [1]	enhancement of a suboptimal dose of MA-MC [2]
Glucose monomycolate [GMM]	readily detected	–
Sulfoglycolipid [SGL]	readily detected	–
cyclic-di-GMP	–	top three candidates
monophosphoryl lipid A [MPLA]	–	top three candidates
